The subject of series [1] is L1210 cell line. The series can be described thus: In vitro cytotoxic activity, L1210. It is filed as cell-based.
The target of series [2] is HIV-1 reverse transcriptase (Human immunodeficiency virus type 1 group M subtype B, UniProt P04585). The series can be described thus: Inhibition of HIV-1 reverse transcriptase. It is filed as biochemical. The method, then:
The assay was performed according to an available procedure (Goldman, M. E.; Salituro, G. S.; Bowen, J. A.; Williamson, J. M.; Zink, D. L.; Schleif, W. A.; Emini, E. A. Mol. Pharmacol. 1990, 38, 20) with slight modification. A 45 L solution of reaction buffer containing 55 mM Tris·HCl, pH 8.2, 80 mM potassium chloride, 12 mM MgCl2, 1 mM DTT, 50 M EGTA, 2.5 g/mL rA·dT, 0.5 Ci of [^3 H]TTP, 10 M TTP, 1 mg/mL BSA, and 0.01% Triton X-100 was added to a well in a filter cluster plate (Millipore MAHV N45). The reverse transcription reaction was initiated upon addition of the reverse transcriptase (1 unit; 1 unit=10 pmol of [^3 H]TMP incorporated/60 min at 37° C.). The plate was incubated at 37° C. for 90 min. The plate was then placed on ice and 200 µL of 13% trichloroacetic acid and 10 mM sodium pyrophosphate was added to each well. The plate was chilled for 2 h and the liquid vacuumed out through the filter using a Millipore manifold (Millipore MAVM 09601). The precipitate was washed with 1 M and 10 mM sodium pyrophosphate twice. The filter was punched out and placed in a scintillation vial. 4 mL of cocktail was added. Radioactivity was determined by liquid scintillation counting.
The effects of sandramycin and its analogs on HIV-1 reverse transcriptase were determined by incubating the agents and the rA·dT containing buffer at 25° C. for 30 min prior to addition of the reverse transcriptase. Reactions containing no agents were used as controls, and those lacking the transcriptase were used as blanks.

The subject of series [3] is calf thymus DNA and 5'-d(GCATGC)2. Put plainly: DNA binding affinity trends over calf thymus DNA and 5'-d(GCATGC)2 (fluorescence quenching). How it is done: Apparent absolute DNA binding constants for 1-22 and related agents including luzopeptin A were obtained by measurement of the fluorescence quenching upon titration addition of calf thymus DNA or the deoxyoligonucleotides 5'-d(GCXXGC)2 where XX=AT, TA, GC, and CG. For each agent, the characteristic fluorescence excitation and emission spectra were recorded in 10 mM Tris-HCl, 75 mM NaCl (pH 7.4) buffer, FIG. 6. For the DNA binding assays which quantitate the fluorescence quenching, excitation outside the absorbance range of DNA was employed and the most intense fluorescence emission at a longer wavelength monitored. For assay of the DNA-induced fluorescence quenching of the agents, a 2 mL buffer solution of Tris-HCl (pH 7.4) and 75 mM NaCl was employed. For titration, small aliquots of DNA were added to solutions of the agents in Tris-HCl buffer (pH 7.4).
Despite these precautions, the fluorescence for a number of the analog solutions decreased for several of analogs (11, 14, 17, 21 and 22) and the quality of the binding constants for these should be viewed with caution. […] The titrations were carried out with 15 min time intervals between DNA additions to allow binding equilibration. […] The titration fluorescence quenching was analyzed by Scatchard analysis (Scatchard, G. Ann. N. Y. Acad. Sci. 1949, 51, 660) with the following equation: rb /c=Kb n-Kb rb where rb is the number of agent molecules bound per DNA base-pair, c is the free drug concentration, Kb is the apparent association constant, and n is the number of agent binding sites per base-pair.
A pronounced downward curvature in an infinite lattice such as calf thymus DNA is recognized to arise in part from neighbor exclusion where the binding of an agent excludes the subsequent binding at nearby sites. This exclusion manifests itself in the plot by a reduction in the apparent binding constant as the DNA lattice approaches saturation and the probability of finding a free site is diminished. In the calf thymus DNA studies, the binding also entails multiple classes of independent binding sites or modes. For simplicity, a linear fit of the high affinity binding sites was used to determine the binding constant attributable to bis-intercalation. For the deoxyoligonucleotides, the curvature can be more simply attributed to multiple classes of independent binding sites or binding modes. There are a number of mathematical methods to deconvolute the curved plot into such individual binding events. In the deoxyoligonucleotide studies, a non-linear fit described by Feldman was also used to deconvolute the curves. The model assumes one ligand with two binding types or sites. Since the number of binding sites is limited, we have interpreted this to indicate a high affinity bis-intercalation and a lower affinity binding potentially involving mono-intercalation. The formula was fit using the JMP^22 statistical fitting program using an initial approximation of the two n values and fitting for K1 and K2.
After 5 min of stirring, an initial fluorescence reading was taken with minimum exposure to the excitation beam. […] The excitation and emission wavelengths used for each analog varied and can be found in FIG. 6. The results of the titration were analyzed by Scatchard analysis. The linear portion of the Scatchard plot was used to determine the high affinity binding constants. In the case of the deoxyoligonucleotide study, a non-linear fit of the curve as described in the text was also used to determine the high affinity binding constant (Feldman, H. A. Anal. Biochem. 1972, 48, 317).

Series [4] deals with five cell lines. Put plainly: In vitro cytotoxic activity of key substructure analogs, five cell lines. The format is cell-based. As to conditions: five cell lines.

`COc1ccc2nc(C(=O)N[C@@H]3COC(=O)[C@H](C(C)C)N(C)C(=O)CN(C)C(=O)CNC(=O)[C@@H]4CCCCN4C(=O)[C@H](NC(=O)c4ccc5cc(OC)ccc5n4)COC(=O)[C@H](C(C)C)N(C)C(=O)CN(C)C(=O)CNC(=O)[C@@H]4CCCCN4C3=O)ccc2c1` [compound 13, (N-(6-Methoxyquinolinyl-2-carbonyl)-D-Ser-Pip-Gly-Sar-NMe-Val)2 (Serine Hydroxyl) Dilactone]: in series [1], the “cytotoxic potency, fold less potent than 4” value was found to be 2 and the “cytotoxic potency, fold less potent than 11” value came to 10. Further, the “HIV-1 reverse transcriptase inhibition, in words” value in series [2] was “Comparable but slightly less potent inhibition”.

Consider `COc1cc2ccccc2nc1C(=O)N[C@@H]1COC(=O)[C@H](C(C)C)N(C)C(=O)CN(C)C(=O)CNC(=O)[C@@H]2CCCCN2C(=O)[C@H](NC(=O)c2nc3ccccc3cc2OC)COC(=O)[C@H](C(C)C)N(C)C(=O)CN(C)C(=O)CNC(=O)[C@@H]2CCCCN2C1=O` [compound 3, (N-(3-Methoxy-quinolinyl-2-carbonyl)-D-ser-Pip-Gly-Sar-NMe-Val)2 (Serine Hydroxyl) Dilactone], for which, in series [2], the “HIV-1 reverse transcriptase inhibition, in words” value is listed as “roughly maintain the HIV-1 reverse transcriptase inhibitory potency of 1” and the “reduction in inhibitory potency on O-alkylation of the C3 phenol” value was “approx. 10”.

As for `Cc1ccc2nc(C(=O)N[C@@H]3COC(=O)[C@H](C(C)C)N(C)C(=O)CN(C)C(=O)CNC(=O)[C@@H]4CCCCN4C(=O)[C@H](NC(=O)c4nc5ccc(C)cc5cc4O)COC(=O)[C@H](C(C)C)N(C)C(=O)CN(C)C(=O)CNC(=O)[C@@H]4CCCCN4C3=O)c(O)cc2c1` [compound 14, (N-(-3-Hydroxy-6-methylquinolinyl-2-carbonyl)-D-Ser-Pip-Gly-Sar-NMe-Val). sub.2 (Serine Hydroxyl) Dilactone], in series [1], the “cytotoxic potency, fold less potent than 1” value is recorded as 1. In addition, in series [2], the “HIV-1 reverse transcriptase inhibition, in words” value is reported as “Comparable but slightly less potent inhibition”. Besides, in series [3], the “DNA binding affinity, in words” value is “consistently slightly less effective”.

With “Sandramycin Bis-O-benzyl Ether [compound 2]”, in series [1], the “cytotoxic potency, fold less potent than 1” value was 1000. Also, in series [4], the “fold less potent than 1” value is reported as 20-1000.

Turning to `CC(C)[C@H]1C(=O)OC[C@@H](NC(=O)c2nc3cc(Cl)ccc3cc2O)C(=O)N2CCCC[C@H]2C(=O)NCC(=O)N(C)CC(=O)N(C)[C@@H](C(C)C)C(=O)OC[C@@H](NC(=O)c2nc3cc(Cl)ccc3cc2O)C(=O)N2CCCC[C@H]2C(=O)NCC(=O)N(C)CC(=O)N1C` [compound 16, (N-(7-Chloro-3-hydroxyquinolinyl-2-carbonyl)-D-Ser-Pip-Gly-Sar-NMe-Val). sub.2 (Serine Hydroxyl) Dilactone], the “cytotoxic potency, fold less potent than 1” value in series [1] amounted to 0.5. For the same compound, the “HIV-1 reverse transcriptase inhibition, in words” value in series [2] is reported as “Comparable but slightly less potent inhibition”. Besides, in series [3], the “DNA binding affinity, in words” value is listed as “nearly indistinguishable from 1”.

For “(N-(3-Benzyl-oxypyridyl-2-carbonyl)-D-Ser-Pip-Gly-Sar-NMe-Val)2 (Serine Hydroxyl) Dilactons [compound 9]”, in series [1], the “cytotoxic potency, fold less potent than 2” value stood at 4000 and the “cytotoxic potency, fold less potent than 8” value was 1000.

For the compound `CC(C)C1C(=O)OCC(NC(=O)c2cc3ccccc3cc2OCc2ccccc2)C(=O)N2CCCCC2C(=O)NCC(=O)N(C)CC(=O)N(C)C(C(C)C)C(=O)OCC(NC(=O)c2cc3ccccc3cc2OCc2ccccc2)C(=O)N2CCCCC2C(=O)NCC(=O)N(C)CC(=O)N1C` [compound 6, (N-(3-Benzyl-oxynaphthyl-2-carbonyl)-D-Ser-Pip-Gly-Sar-NMe-Val)2 (Serine Hydroxyl) Dilactone], in series [1], the “cytotoxic potency, fold less potent than 2” value was > 5000 and the “cytotoxic potency, fold less potent than 5” value is > 500.

Turning to “(N-(3-Benzyloxy-7-chloroquinolinyl-2-carbonyl)-D-Ser-Pip-Gly-Sar-NMe-Val)2 (Serine Hydroxyl) Dilactone [compound 17]”, in series [2], the “reduction in inhibitory potency on O-alkylation of the C3 phenol” value is listed as > 500. In series [3] (O-benzylation of chromophore phenol), the “reduction of the binding affinity versus 16” value fell in the range of 2.4 to 2.7 kcal/mol.

For the compound `CC(C)[C@H]1C(=O)OC[C@@H](NS(=O)(=O)CC[Si](C)(C)C)C(=O)N2CCCC[C@H]2C(=O)NCC(=O)N(C)CC(=O)N(C)[C@@H](C(C)C)C(=O)OC[C@@H](NC(=O)c2nc3ccccc3cc2O)C(=O)N2CCCC[C@H]2C(=O)NCC(=O)N(C)CC(=O)N1C` [compound 24, N^1 -SES,N^6 -(3-hydroxylquinoline-2-carbonyl) (D-Ser-Pip-Gly-Sar-NMe-Val)2 (Serine Hydroxyl) Dilactone], the “fold less potent than 1” value in series [4] was 5000-10000.

Consider `COc1ccc2nc(C(=O)NC3COC(=O)C(C(C)C)N(C)C(=O)CN(C)C(=O)CNC(=O)C4CCCCN4C(=O)C(NC(=O)c4nc5ccc(OC)cc5cc4O)COC(=O)C(C(C)C)N(C)C(=O)CN(C)C(=O)CNC(=O)C4CCCCN4C3=O)c(O)cc2c1` [compound 11, (N-(3-Hydroxy-6-Methoxy-quinolinyl-3-carbonyl)-D-Ser-Pip-Gly-Sar-NMe-Val)2 (Serine Hydroxyl) Dilactone], for which the “cytotoxic potency, fold less potent than 1” value in series [1] worked out at 2. Moreover, the “DNA binding affinity, in words” value in series [3] is on record as “slightly less effective”.

For the compound `CC(C)[C@H]1C(=O)OC[C@@H](NC(=O)c2ccccn2)C(=O)N2CCCC[C@H]2C(=O)NCC(=O)N(C)CC(=O)N(C)[C@@H](C(C)C)C(=O)OC[C@@H](NC(=O)c2ccccn2)C(=O)N2CCCC[C@H]2C(=O)NCC(=O)N(C)CC(=O)N1C` [compound 10, (N-(Pyridyl-2-carbonyl)-D-Ser-Pip-Gly-Sar-NMe-Val)2 (Serine Hydroxyl) Dilactone], in series [1], the “cytotoxic potency, fold less potent than 4” value is 4×10^5 and the “cytotoxic potency, fold less potent than 8” value was 1000. Also, the “HIV-1 reverse transcriptase inhibition, in words” value in series [2] is given as “much less effective”.

As to `COc1ccc2nc(C(=O)NC3COC(=O)C(C(C)C)N(C)C(=O)CN(C)C(=O)CNC(=O)C4CCCCN4C(=O)C(NC(=O)c4nc5ccc(OC)cc5cc4OCc4ccccc4)COC(=O)C(C(C)C)N(C)C(=O)CN(C)C(=O)CNC(=O)C4CCCCN4C3=O)c(OCc3ccccc3)cc2c1` [compound 12, (N-(3-Benzyloxy-6-methoxy-quinolinyl-2-carbonyl)-D-Ser-Pip-Gly-Sar-NMe-Val)2 (Serine Hydroxyl) Dilactone], in series [1], the “cytotoxic potency, fold less potent than 2” value came out at 0.8 and the “cytotoxic potency, fold less potent than 11” value was found to be 400.

As for `CC(C)C1C(=O)OCC(NC(=O)c2nc3ccccc3nc2OCc2ccccc2)C(=O)N2CCCCC2C(=O)NCC(=O)N(C)CC(=O)N(C)C(C(C)C)C(=O)OCC(NC(=O)c2nc3ccccc3nc2OCc2ccccc2)C(=O)N2CCCCC2C(=O)NCC(=O)N(C)CC(=O)N1C` [compound 20, (N-(3-Benzyl-oxyquinoxalyl-2-carbonyl)-D-Ser-Pip-Gly-Sar-NMe-Val)2 (Serine Hydroxyl) Dilactone], the “cytotoxic potency, fold less potent than 19” value in series [1] is recorded as 7.

The record behind these values is patent US6329497A, “Sandramycin analogs” (The Scripps Research Institute, priority 1999, dated 2001).
